Measured values: patent US20070191490A1, “Withacnistin compounds for treatment of cancer” (priority 2006, published 2007)
Entries after “also recorded” stand apart in the source; their conditions may differ.

Tests used:
phosphotyrosine-JAK2 = assay: Inhibition of phosphotyrosine-JAK2 levels in tumor cell lines (Western blotting); format: cell-based, human; details: for P-JAK2 levels: A549 cells (FIG. 8A); for IC50: Wit tested as withacnistin mixture; for levels of P-JAK2: 10 μM, 4 hours
Method: Western blotting. Treated cell samples were lysed in 30 mM HEPES, pH 7.5, 10 mM NaCl, 5 mM MgCl2, 25 mM NaF, 1 mM EGTA, 1% Triton X-100, 10% glycerol, 2 mM sodium orthovanadate, 10 μg/ml aprotinin, 10μ/ml soybean trypsin inhibitor, 25 μg/ml leupeptin, 2 mM PMSF, and 6.4 mg/ml p-nitrophenylphosphate. Phospho-STAT3, phospho-AKT, phospho-Src, and phospho-p42/p44 MAPK antibodies were obtained from Cell Signaling Technologies (Cambridge, Mass., USA). Phospho-JNK and whole STAT3 antibodies were purchased from Santa Cruz Biotechnology (Santa Cruz, Calif., USA); phospho-JAK2 antibody came from Upstate Biotechnology (Lake Placid, N.Y., USA). Membranes were blocked in either 5% milk in phosphate-buffered saline (PBS), pH 7.4, containing 0.1% Tween-20 (PBS-T) or 1% BSA in tris-buffered saline (TBS), pH 7.5, containing 0.1% Tween-20 (TBS-T). Phospho-specific antibodies (excepting P-MAPK and P-JNK) were incubated in 1% BSA in TBS-T while all other antibodies were diluted in 5% milk in PBS-T for either 2 h at room temperature or overnight at 4° C. HRP-conjugated secondary antibodies (Jackson ImmunoResearch, West Grove, Pa., USA) were diluted in 5% milk in either PBS-T or TBS-T at 1:1000 dilution for 1 h at room temperature. Western blots were visualized using enhanced chemiluminescence.
To this end, A549 cells (a human non-small-cell lung carcinoma line) were treated with either vehicle, cucurbitacin analogs A, B, E, or I, or withacnistin mixture (10 ∥M) for 4 hours and the cell lysates processed for Western blotting with antiphosphotyrosine STAT3 (Y705) antibody or antiphosphotyrosine JAK2 (Y1007, Y1008) antibody as described under Materials and Methods.
(§1) As further support of the specific antiphosphotyrosine STAT3, but not antiphosphotyrosine JAK2, activity of withacnistin, A549 cells, as well as two breast carcinoma cell lines (MDA-MB-435 and MDA-MB-468) that also express constitutively activated JAK2 and STAT3, were treated with the withacnistin mixture at various concentrations, and determined IC50 values of inhibition of STAT3 and JAK2 activation.

STAT3 = assay: Total STAT3 levels (STAT3 immunoprecipitation / immunoblot); format: cell-based, human; details: A549 cells
Method: STAT3 immunoprecipitation. A549 cells were treated for 4 hour with vehicle or the withacnistin mixture, then lysed in 150 mM HEPES, pH 7.5, 150 mM NaCl, 1 mM EDTA, 0.5% NP-40, 10% glycerol, 5 mM NaF, 1 mM DTT, 1 mM PMSF, 2 mM sodium orthovanadate, and 5 μg/ml leupeptin. Sample lysates were collected and cleared, then 500 μg of lysate was immunoprecipitated with 50 ng STAT3 antibody overnight at 4° C., then rocked with 25 μl Protein A/G PLUS agarose (Santa Cruz Biotechnology) for 1 hour at 4° C. Samples were washed four times with lysis buffer, then boiled in 2×SDS-PAGE sample buffer and run on 10% SDS-PAGE gel. Protein was transferred to nitrocellulose then blotted as above for both phospho-specific STAT3 and STAT3.
as §1, with “activation. […] In all three cell lines, JAK2 activation was not inhibited at withacnistin concentrations as high as 10 μM. […] Thus, in all three cell lines, withacnistin (Wit) inhibits specifically STAT3 but not JAK2 activation and Cuc A inhibits JAK2 but not STAT3 activation whereas Cuc I inhibits the activation of both STAT3 and JAK2.” for “activation.”

JAK2 = assay: Total JAK2 levels in A549 cells; format: cell-based, human; details: 10 μM, data not shown
Method: as §1, with “activation. […] In all three cell lines, JAK2 activation was not inhibited at withacnistin concentrations as high as 10 μM. […] Thus, in all three cell lines, withacnistin (Wit) inhibits specifically STAT3 but not JAK2 activation and Cuc A inhibits JAK2 but not STAT3 activation whereas Cuc I inhibits the activation of both STAT3 and JAK2.” for “activation.”

A549 tumors = assay: Antitumor activity in nude mouse xenograft model, A549; format: in vivo; details: nude mice, 1 mg/kg/day i.p., Wit = withacnistin mixture
Description: (§2) Antitumor activity in the nude mouse tumor xenograft model. Nude mice (Charles River, Wilmington, Mass., USA) were maintained in accordance with the Institutional Animal Care and Use Committee (IACUC) procedures and guidelines. A549 cells were harvested, resuspended in PBS, and injected subcutaneously (s.c.) into the right and left flank (1×10^7 cells per flank) of 8-week-old female nude mice as reported previously (Blaskovich, M. A. et al. Cancer Res., 2003, 63:1270-1279). When tumors reached about 150 mm^3, animals were randomized (four animals per group; two tumors per animal) and dosed intraperitoneally (i.p.) either with cucurbitacin analogs (0.5 or 1 mg/kg/day, i.p.) in 20% DMSO in water or with an equal volume of vehicle control. The tumor volumes were determined by measuring the length (l) and the width (w) and calculating the volume (V=lw^2/2) as described previously (Blaskovich, M. A. et al. Cancer Res., 2003, 63:1270-1279). Statistical significance between control and treated animals were evaluated by using Student's t-test.
(§3) To determine the ability of the cucurbitacin analogs and withacnistin to inhibit tumor growth in vivo, the antitumor activity of the cucurbitacin analogs and withacnistin against both A549 and v-Src/3T3 tumors in a nude mouse xenograft model was evaluated. When the tumors became palpable (at volumes of approximately 100-150 mm^3), the mice were treated either with vehicle control or 1 mg/kg/day of the cucurbitacins or the withacnistin mixture. Tumor volumes were monitored by caliper measurement as previously described (Blaskovich, M. A. et al. Cancer Res., 2003, 63:1270-1279) and under Materials and Methods.

v-Src/3T3 tumors = assay: Antitumor activity in nude mouse xenograft model, v-Src/3T3; format: in vivo; details: v-Src/3T3 xenograft, nude mice, 1 mg/kg/day i.p.; Wit = withacnistin mixture
Description: as §2, §3
Withacnistin inhibited 57% of tumor growth while Cuc I, B, and E inhibited 45, 40, and 42% of tumor growth, respectively (FIG. 3 and Table 2).

Row | Structure (SMILES) | P-JAK2 levels (phosphotyrosine-JAK2) | IC50 (phosphotyrosine-JAK2; A549 cells) [nM] | IC50 (phosphotyrosine-JAK2; MDA-MB-435 cells) [nM] | IC50 (phosphotyrosine-JAK2; MDA-MB-468 cells) [nM] | total STAT3 levels (STAT3; 10 μM, 4 hours) | total STAT3 levels (STAT3; by 24 hours, data not shown) | total JAK2 levels (JAK2) | % Inhibition of tumor growth (A549 tumors) [%] | % Inhibition of tumor growth (v-Src/3T3 tumors) [%] | levels of P-JAK2 (phosphotyrosine-JAK2; A549 cells)
1 | CC(=O)OC[C@]12CC[C@H]3[C@@H](C[C@H]4O[C@]45[C@@H](O)C=CC(=O)[C@]35C)[C@@H]1CC[C@@H]2[C@H](C)[C@H]1CC(C)=C(C)C(=O)O1 [withacnistin] | but not P-JAK2 | > 10000 | > 10000 | > 10000 | without affecting | suppressed | none of the three compounds affects | 73.1 | 57 | –
2 | CC(C)(O)/C=C/C(=O)[C@](C)(O)[C@H]1[C@H](O)C[C@@]2(C)[C@@H]3CC=C4[C@@H](C=C(O)C(=O)C4(C)C)[C@]3(C)C(=O)C[C@]12C [Cuc I, cucurbitacin I] | suppressed the levels of both | 250 ± 90 | 180 ± 70 | 400 ± 260 | does not affect | – | none of the three compounds affects | 55.4 | 45 | inhibited
3 | CC(=O)OC(C)(C)/C=C/C(=O)[C@](C)(O)[C@H]1[C@H](O)C[C@@]2(C)[C@@H]3CC=C4[C@@H](C[C@H](O)C(=O)C4(C)C)[C@]3(CO)C(=O)C[C@]12C [Cuc A, cucurbitacin A] | – | 1500 ± 700 | 650 ± 50 | 860 | does not affect | – | none of the three compounds affects | 11.1 | 16 | suppressed; also recorded: potently inhibited
